In ChEMBL document CHEMBL3886562, “Substituted pyridone derivatives as PDE10 inhibitors” (2016):
pKi: −log10 of the molar value.

Target: cAMP and cAMP-inhibited cGMP 3',5'-cyclic phosphodiesterase 10A (Homo sapiens, UniProt Q9Y233)
Experiment: PDE10 Fluorescence Polarization (FP) Assay: The fluorescence polarization assay for cyclic nucleotide phosphodiesterases was performed using an IMAP FP kit supplied by Molecular Devices, Sunnyvale, Calif. (product # R8139). IMAPU technology has been applied previously to phosphodiesterase assays (Huang, W., et al., J. Biomol Screen, 2002, 7: 215). Assays were performed at room temperature in 384-well microtiter plates with an incubation volume of 20.2 uL. Solutions of test compounds were prepared in DMSO and serially diluted with DMSO to yield 8 uL of each of 10 solutions differing by 3-fold in concentration, at 32 serial dilutions per plate.

cAMP and cAMP-inhibited cGMP 3',5'-cyclic phosphodiesterase 10A, sequence (Q9Y233 whole entry): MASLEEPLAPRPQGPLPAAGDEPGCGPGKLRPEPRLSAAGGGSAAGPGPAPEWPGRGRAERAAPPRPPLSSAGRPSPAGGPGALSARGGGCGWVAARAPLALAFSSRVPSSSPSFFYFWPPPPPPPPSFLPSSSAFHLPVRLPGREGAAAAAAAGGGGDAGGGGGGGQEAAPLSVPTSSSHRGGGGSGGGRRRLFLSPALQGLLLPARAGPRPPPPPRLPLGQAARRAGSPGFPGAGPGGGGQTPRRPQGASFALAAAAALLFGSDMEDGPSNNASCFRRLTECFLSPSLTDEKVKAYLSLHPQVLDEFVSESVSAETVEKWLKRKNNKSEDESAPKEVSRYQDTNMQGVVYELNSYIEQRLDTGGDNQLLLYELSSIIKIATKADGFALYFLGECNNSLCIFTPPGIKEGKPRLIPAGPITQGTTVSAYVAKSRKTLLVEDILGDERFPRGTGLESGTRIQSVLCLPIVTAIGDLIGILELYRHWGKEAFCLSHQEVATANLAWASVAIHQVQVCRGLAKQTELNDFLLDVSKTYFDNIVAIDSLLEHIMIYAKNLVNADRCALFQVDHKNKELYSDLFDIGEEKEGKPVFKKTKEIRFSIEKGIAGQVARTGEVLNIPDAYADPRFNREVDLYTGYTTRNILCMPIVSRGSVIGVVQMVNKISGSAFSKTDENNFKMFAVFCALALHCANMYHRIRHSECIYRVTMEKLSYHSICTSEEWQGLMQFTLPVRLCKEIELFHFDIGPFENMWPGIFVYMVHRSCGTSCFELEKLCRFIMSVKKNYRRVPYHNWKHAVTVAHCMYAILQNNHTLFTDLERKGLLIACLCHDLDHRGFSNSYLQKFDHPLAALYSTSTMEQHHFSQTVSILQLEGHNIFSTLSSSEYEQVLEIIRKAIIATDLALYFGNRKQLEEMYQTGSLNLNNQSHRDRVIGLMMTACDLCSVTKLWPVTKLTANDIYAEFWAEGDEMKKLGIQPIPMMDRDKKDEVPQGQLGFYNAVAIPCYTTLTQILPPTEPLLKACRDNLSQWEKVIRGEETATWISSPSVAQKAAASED

SMILES: Cc1ncc(-c2cc(F)c(=O)n(C)c2)c(OC[C@H]2C[C@@H]2c2ccc3ccccc3n2)n1
- pKi: 10.39

SMILES: Cc1ccc([C@H]2C[C@@H]2COc2nc(C)ncc2-c2ccc(=O)n(CC#N)c2)nc1
- pKi: 8.46
